What was measured:
[1] = target: T1, EcCoaA (prokaryotic type I pantothenate kinase) (Escherichia coli, UniProt P0A6I3); assay: radiometric pantothenate kinase assay with D-[…]pantothenate; assay type: biochemical
T1 construct: gene coaA; recombinant from pET15b/bPanK in E. coli BL21 (DE3), nickel-resin purified, His-tag
T1 sequence (P0A6I3 1-316): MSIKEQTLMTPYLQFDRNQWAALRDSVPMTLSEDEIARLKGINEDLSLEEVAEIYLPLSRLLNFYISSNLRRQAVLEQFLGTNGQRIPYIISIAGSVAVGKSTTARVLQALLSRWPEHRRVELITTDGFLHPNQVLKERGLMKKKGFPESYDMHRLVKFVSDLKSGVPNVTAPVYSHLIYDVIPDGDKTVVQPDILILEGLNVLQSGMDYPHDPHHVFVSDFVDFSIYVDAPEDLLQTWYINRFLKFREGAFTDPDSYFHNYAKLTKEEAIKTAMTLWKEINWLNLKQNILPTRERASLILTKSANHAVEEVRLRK

[2] = target: T2, SaCoaA (prokaryotic type II pantothenate kinase) (Staphylococcus aureus, UniProt Q8NVG0); assay: as above; assay type: biochemical
T2 construct: gene coaW; recombinant from pET-28a(+) (pET-Sa-coaA) in E. coli BL21 (DE3), nickel-resin purified, His-tag
T2 sequence (Q8NVG0 1-267): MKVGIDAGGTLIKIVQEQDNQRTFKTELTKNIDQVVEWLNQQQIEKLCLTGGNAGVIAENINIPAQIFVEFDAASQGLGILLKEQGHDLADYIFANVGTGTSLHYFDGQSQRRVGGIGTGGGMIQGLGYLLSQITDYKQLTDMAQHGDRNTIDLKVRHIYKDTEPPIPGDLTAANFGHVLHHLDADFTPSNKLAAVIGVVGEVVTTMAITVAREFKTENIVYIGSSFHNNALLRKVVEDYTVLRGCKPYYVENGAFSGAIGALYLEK

## CC(C)(CO)[C@@H](O)C(=O)NCCCO [d-pantothenol]
[1]
  IC50: 6.06 mM
[2]
  IC50: 1.68 mM

Reference: publication PMC4103530, “Antimicrobial Activity of Pantothenol against Staphylococci Possessing a Prokaryotic Type II Pantothenate Kinase” (Microbes and Environments, 2014)
